Where a SMILES comes first, the peptide text is derived from it. [ ]: non-standard residue; d: D form.
Columns and labels:
[1] = tested on: MDREC 1229; assay: MIC of antibiotic during combined treatment with antimicrobial peptide; assay type: cell-based, Escherichia coli
Protocol: Specifically, the strains described in [Table 2] were prepared and diluted with an MH medium such that the number of bacteria was 2×10^6 colony-forming units (CFUs) per 1 ml, 100 μl of the diluted strains was each aliquoted into a 96-well microtiter plate, and then 50 μl of a peptide solution diluted with the MH medium from the MIC value (solution diluted stepwise at 2: 1) was added to each well. Thereafter, the MIC value of each mixed solution was determined by diluting the antibiotic solution with the MH medium, adding 50 μl of the diluted solution to each well, and performing an experiment even under a reversed condition.

[2] = tested on: A. baumannii; assay: MIC of antimicrobial peptide during combined treatment with antibiotic; assay type: cell-based, Acinetobacter baumannii
Outline: (§1)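 Broth microdilution in MH medium; strains were diluted to 2×10^6 CFU per ml before plating. Peptide was serially diluted stepwise at 2:1 starting from its MIC, and MH-diluted antibiotic was then added to determine MIC. The reversed arrangement was also tested.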

[3] = tested on: MDRAB 12035; assay: as above; assay type: cell-based, Acinetobacter baumannii
Outline: as §1

[4] = peptide treatment concentration 4 μg/ml
[5] = peptide treatment concentration 6 μg/ml
[6] = peptide treatment concentration 8 μg/ml
[7] = peptide treatment concentration 16 μg/ml
[8] = peptide treatment concentration 32 μg/ml
[9] = peptide treatment concentration 64 μg/ml
[10] = erythromycin 4 μg/ml (Conc./MIC 1/8)
[11] = erythromycin 8 μg/ml (Conc./MIC 1/4)
[12] = erythromycin 16 μg/ml (Conc./MIC 1/2)
[13] = erythromycin 32 μg/ml (Conc./MIC 1)
[14] = vancomycin 512 μg/ml (Conc./MIC 1/2)
[15] = vancomycin 1024 μg/ml (Conc./MIC 1)

SMILES: CC[C@H](C)[C@H](NC(=O)[C@H](CCCCN)NC(=O)[C@H](Cc1c[nH]c2ccccc12)NC(=O)[C@@H](N)CCCNC(=N)N)C(=O)N[C@@H](Cc1ccccc1)C(=O)N[C@@H](CCCCN)C(=O)N[C@@H](CCCCN)C(=O)N[C@H](C(=O)N[C@H](CCCCN)C(=O)N[C@@H](CCCCN)C(=O)N[C@@H](CC(C)C)C(=O)N[C@@H](CC(C)C)C(=O)N[C@@H](Cc1c[nH]cn1)C(=O)N[C@@H](CCC(=O)O)C(=O)N[C@@H](Cc1ccccc1)C(=O)N[C@@H](CCCCN)C(=O)N[C@@H](CCCCN)C(=O)N[C@@H](Cc1ccccc1)C(N)=O)[C@@H](C)CC [PapMA-19, RWK IFK KIk KLL HEF KKF-NH2] (H-RWKIFKKI[dK]KLLHEFKKF-NH2; N-terminus assumed)
- Antibiotic MIC, Vancomycin ([1]; peptide treatment concentration 2 μg/ml): 128 µg/mL
- Antibiotic MIC, Erythromycin [1, 4]: 8 µg/mL
- Antibiotic MIC, Linezolid [1, 4]: 32 µg/mL
- Antibiotic MIC, Vancomycin [1, 4]: 64 µg/mL
- Antibiotic MIC, Erythromycin [1, 5]: 2 µg/mL
- Antibiotic MIC, Linezolid [1, 5]: 16 µg/mL
- Antibiotic MIC, Vancomycin [1, 5]: 8 µg/mL
- Antibiotic MIC, Erythromycin [1, 6]: 1 µg/mL
- Antibiotic MIC, Linezolid [1, 6]: 16 µg/mL
- Antibiotic MIC, Vancomycin [1, 6]: 8 µg/mL
- Antibiotic MIC, Erythromycin [1, 7]: 0.5 µg/mL
- Antibiotic MIC, Linezolid [1, 7]: 4 µg/mL
- Antibiotic MIC, Vancomycin [1, 7]: 4 µg/mL
- Antibiotic MIC, Erythromycin [1, 8]: 0 µg/mL
- Antibiotic MIC, Linezolid [1, 8]: 0 µg/mL
- Antibiotic MIC, Vancomycin [1, 8]: 0 µg/mL
- Antibiotic MIC, Erythromycin [1, 9]: 0 µg/mL
- Antibiotic MIC, Linezolid [1, 9]: 0 µg/mL
- Antibiotic MIC, Vancomycin [1, 9]: 0 µg/mL
- Peptide MIC during treatment with antibiotic [2, 10]: 4 µg/mL
- Peptide MIC during treatment with antibiotic [2, 11]: 4 µg/mL
- Peptide MIC during treatment with antibiotic [2, 12]: 2 µg/mL
- Peptide MIC during treatment with antibiotic [2, 13]: 0 µg/mL
- Peptide MIC during treatment with antibiotic ([2]; linezolid 32 μg/ml (Conc./MIC 1/8)): 4 µg/mL
- Peptide MIC during treatment with antibiotic ([2]; linezolid 64 μg/ml (Conc./MIC 1/4)): 2 µg/mL
- Peptide MIC during treatment with antibiotic ([2]; linezolid […] (Conc./MIC 1)): 0 µg/mL
- Peptide MIC during treatment with antibiotic ([2]; linezolid […] (Conc./MIC 1/2)): 1 µg/mL
- Peptide MIC during treatment with antibiotic [2, 14]: 0.25 µg/mL
- Peptide MIC during treatment with antibiotic [2, 15]: 0 µg/mL
- Peptide MIC during treatment with antibiotic ([2]; vancomycin […] (Conc./MIC 1/4)): 0.5 µg/mL
- Peptide MIC during treatment with antibiotic ([2]; vancomycin […] (Conc./MIC 1/8)): 2 µg/mL
- Peptide MIC during treatment with erythromycin [3, 10]: 4 µg/mL
- Peptide MIC during treatment with erythromycin [3, 11]: 4 µg/mL
- Peptide MIC during treatment with erythromycin [3, 12]: 2 µg/mL
- Peptide MIC during treatment with erythromycin [3, 13]: 0 µg/mL
- Peptide MIC during treatment with linezolid ([3]; linezolid 64 μg/ml (Conc./MIC 1/8)): 4 µg/mL
- Peptide MIC during treatment with linezolid ([3]; linezolid 512 μg/ml (Conc./MIC 1)): 0 µg/mL
- Peptide MIC during treatment with linezolid ([3]; linezolid […] (Conc./MIC 1/2)): 1 µg/mL
- Peptide MIC during treatment with linezolid ([3]; linezolid […] (Conc./MIC 1/4)): 2 µg/mL
- Peptide MIC during treatment with vancomycin [3, 14]: 2 µg/mL
- Peptide MIC during treatment with vancomycin [3, 15]: 1 µg/mL
- Peptide MIC during treatment with vancomycin ([3]; vancomycin […] (Conc./MIC 1/4)): 2 µg/mL
- Peptide MIC during treatment with vancomycin ([3]; vancomycin […] (Conc./MIC 1/8)): 2 µg/mL
